Data on four compounds can be found in patent US8183374B2, “Piperidine and piperazine derivatives” (M's Science Corporation, priority 2006, dated 2012).

In one data set the test system is rats. The conditions noted are these: microinjection/injection in rats; cited from earlier work.
The target of a further data set is T1, σ1 receptors (Homo sapiens, UniProt Q99720).
T1 construct: endogenous in cells; host or cells: HEK-293 cell membranes
Kind of data set: σ1 receptor binding assay. Particulars: HEK-293 cell membranes, 10 nM (+)-[3H]-pentazocine, 120 min at 37° C. Here is the method:
Sigma-1 (σ1) and sigma-2 (σ2) receptor binding assays are carried out in membranes from HEK-293 (Human Embryonic Kidney) cells.
Confluent HEK-293 cells are harvested in PBS/5 mM EDTA. They are centrifuged at 2000 rpm for 5 min and then washed two times in PBS. Cells are homogenized in 20 mM Tris-HCL (pH=7.5) containing 5 mM EDTA, 0.5 mM PMSF and 0.5 μg/mL leupeptin using a Dounce homogenizer and sonicated for 5 minutes.
Nuclear debris and intact cells are removed by centrifugation at 3000 rpm for 10 minutes at 4° C. […]
Proteins are determined using the Bio Rad Protein Assay Dye Reagent and the membranes are aliquoted and frozen at −80° C. […]
Total binding is determined by incubating 50 μg of HEK-293 cell membranes with 10 nM (+)−[^3H]-pentazocine (Perkin-Elmer, 35 Ci/mmol) and assay buffer (50 mM Tris-HCl, pH=8.3) in a total volume of 200 μl. Non specific binding is determined in the presence of 10 μM unlabeled pentazocine. […] The filters are washed three times and the membrane-bound radioactivity is determined in a Microbeta scintillation counter. […]
Specific binding is determined by subtraction of non specific binding from total binding. […]

T1 sequence (Q99720 whole entry): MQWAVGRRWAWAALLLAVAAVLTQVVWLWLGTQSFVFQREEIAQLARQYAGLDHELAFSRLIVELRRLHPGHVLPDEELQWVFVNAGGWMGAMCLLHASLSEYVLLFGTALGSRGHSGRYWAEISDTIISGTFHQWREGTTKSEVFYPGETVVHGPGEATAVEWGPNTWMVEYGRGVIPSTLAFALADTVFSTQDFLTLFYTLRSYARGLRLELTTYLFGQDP

On to `Cc1ccccc1NC(=N)Nc1ccccc1C` [DTG, 1,3-di-2-tolyl-guanidine], for which the “neck dystonia in rats” value with rats is “induced neck dystonia”.

Consider `COc1cc(CCC(=O)N2CCN(CCOc3ccc(F)cc3)CC2)cc(OC)c1OC.Cl` [Example 35, 1-{4-[2-(4-Fluorophenoxy)Ethyl]Piperazin-1-yl}-3-(3,4,5-Trimethoxy-Phenyl)Propan-1-One Hydrochloride], for which the “IC50 in the σ1 receptor binding assay” value at σ1 receptors is on record as “a little less active”.

In the case of `COc1cc(CC(=O)N2CCN(CCOc3ccccc3F)CC2)cc(OC)c1OC.Cl` [Example 41, 1-{4-[2-(2-Fluorophenoxy)Ethyl]Piperazin-1-yl}-2-(3,4,5-Trimethoxy-Phenyl)Ethanone Hydrochloride], the “IC50 in the σ1 receptor binding assay” value at σ1 receptors is on record as “a little less active”.

As for `COc1ccc(CCN2CCN(CCCc3ccccc3)CC2)cc1OC` [SA-4503, 1-[2-(3,4-dimethoxyphenyl)ethyl]-4-(3-phenylpropyl)piperazine], the “neck dystonia in rats” value in the data set with rats is on record as “had no effect”.
